For the assay, the target named is T1, indoleamine 2, 3-dioxygenase (IDO1) (Homo sapiens, UniProt P14902).
T1 construct: human peripheral blood mononuclear cells (PBMC) (PB003F; host or cells: human PBMC stimulated with IFN-gamma and LPS
T1 sequence (P14902 whole entry): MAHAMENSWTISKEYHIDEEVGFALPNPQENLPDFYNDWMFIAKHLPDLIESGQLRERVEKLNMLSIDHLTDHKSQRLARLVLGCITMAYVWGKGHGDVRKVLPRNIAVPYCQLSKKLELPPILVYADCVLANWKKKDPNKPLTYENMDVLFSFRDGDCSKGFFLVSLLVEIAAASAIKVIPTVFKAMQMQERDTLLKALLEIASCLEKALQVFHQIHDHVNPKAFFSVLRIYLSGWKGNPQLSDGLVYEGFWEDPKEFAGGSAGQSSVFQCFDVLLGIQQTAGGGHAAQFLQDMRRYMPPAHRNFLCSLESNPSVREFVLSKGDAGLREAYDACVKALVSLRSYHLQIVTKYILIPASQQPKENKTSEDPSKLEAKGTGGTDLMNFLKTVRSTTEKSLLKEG
The assay is described as follows: PBMC IDO1 assay (kynurenine detection via mass spectrometry). The format is cell-based. Conditions: human PBMC stimulated with IFN-γ and LPS, 2 days, kynurenine by mass spectrometry; read-out: IDO1 PBMC pIC50 (converted). The procedure: Compounds of the present invention were tested via high-throughput cellular assays utilizing detection of kynurenine via mass spectrometry and cytotoxicity as end-points. For the mass spectrometry and cytotoxicity assays, human peripheral blood mononuclear cells (PBMC) (PB003F; AIICells®, Alameda, Calif.) were stimulated with human interferon-γ (IFN-γ) (Sigma-Aldrich Corporation, St. Louis, Mo.) and lipopolysaccharide from Salmonella minnesota (LPS) (Invivogen, San Diego, Calif.) to induce the expression of indoleamine 2, 3-dioxygenase (IDO1). Compounds with IDO1 inhibitory properties decreased the amount of kynurenine produced by the cells via the tryptophan catabolic pathway. Cellular toxicity due to the effect of compound treatment was measured using CellTiter-Glo® reagent (CTG) (Promega Corporation, Madison, Wis.), which is based on luminescent detection of ATP, an indicator of metabolically active cells.
In preparation for the assays, test compounds were serially diluted 3-fold in DMSO from a typical top concentration of 5 mM and plated at 0.5 μL in 384-well, polystyrene, clear bottom, tissue culture treated plates with lids (Greiner Bio-One, Kremsmunster, Austria) to generate 11-point dose response curves. Low control wells (0% kynurenine or 100% cytotoxicity) contained either 0.5 μL of DMSO in the presence of unstimulated (-IFN-γ/-LPS) PBMCs for the mass spectrometry assay or 0.5 μL of DMSO in the absence of cells for the cytotoxicity assay, and high control wells (100% kynurenine or 0% cytotoxicity) contained 0.5 μL of DMSO in the presence of stimulated (+IFN-γ/+LPS) PBMCs for both the mass spectrometry and cytotoxicity assays.
Frozen stocks of PBMCs were washed and recovered in RPMI 1640 medium (Thermo Fisher Scientific, Inc., Waltham, Mass.) supplemented with 10% v/v heat-inactivated fetal bovine serum (FBS) (Thermo Fisher Scientific, Inc., Waltham, Mass.), and 1× penicillin-streptomycin antibiotic solution (Thermo Fisher Scientific, Inc., Waltham, Mass.). The cells were diluted to 1,000,000 cells/mL in the supplemented RPMI 1640 medium. 50 μL of either the cell suspension, for the mass spectrometry assay, or medium alone, for the cytotoxicity assay, were added to the low control wells, on the previously prepared 384-well compound plates, resulting in 50,000 cells/well or 0 cells/well respectively. IFN-γ and LPS were added to the remaining cell suspension at final concentrations of 100 ng/ml and 50 ng/ml respectively, and 50 μL of the stimulated cells were added to all remaining wells on the 384-well compound plates. The plates, with lids, were then placed in a 37° C., 5% CO2 humidified incubator for 2 days.
Following incubation, the 384-well plates were removed from the incubator and allowed to equilibrate to room temperature for 30 minutes. For the cytotoxicity assay, CellTiter-Glo® was prepared according to the manufacturer's instructions, and 40 μL were added to each plate well. After a twenty minute incubation at room temperature, luminescence was read on an EnVision® Multilabel Reader (PerkinElmer Inc., Waltham, Mass.). For the mass spectrometry assay, 10 μL of supernatant from each well of the compound-treated plates were added to 40 μL of acetonitrile, containing 10 μM of an internal standard for normalization, in 384-well, polypropylene, V-bottom plates (Greiner Bio-One, Kremsmunster, Austria) to extract the organic analytes. Following centrifugation at 2000 rpm for 10 minutes, 10 μL from each well of the acetonitrile extraction plates were added to 90 μL of sterile, distilled H2O in 384-well, polypropylene, V-bottom plates for analysis of kynurenine and the internal standard on the RapidFire 300 (Agilent Technologies, Santa Clara, Calif.) and 4000 QTRAP MS (SCIEX, Framingham, Mass.). MS data were integrated using Agilent Technologies' RapidFire Integrator software, and data were normalized for analysis as a ratio of kynurenine to the internal standard. […]
For `COc1ccc([C@H](CC2CCN(S(=O)(=O)CC(C)C)CC2)NC(=O)c2ccc(Cl)s2)cn1` [Example 41, (S)-5-chloro-N-(2-(1-(isobutylsulfonyl)piperidin-4-yl)-1-(6-methoxypyridin-3-yl)ethyl)thiophene-2-carboxamide], the IC50 was 3.98 nM.
With `C[C@H](CC1CCN(C(=O)Oc2ccccc2)CC1)NC(=O)c1ccc(Cl)s1` [Example 42, phenyl (R)-4-(2-(5-chlorothiophene-2-carboxamido)propyl)piperidine-1-carboxylate] the figure was 5.01 nM; with `COc1ccc([C@H](CC2CCN(C(=O)C(F)(F)c3ccccc3)CC2)NC(=O)c2ccc(Cl)s2)cn1` [Example 43, (S)-5-chloro-N-(2-(1-(2,2-difluoro-2-phenylacetyl)piperidin-4-yl)-1-(6-methoxypyridin-3-yl)ethyl)thiophene-2-carboxamide], 1 nM; with `CCN(CC)c1nnc(C(CC2CCN(C(=O)OC(C)(C)C)CC2)NC(=O)c2ccc(Cl)s2)o1` (centres unmarked) [Example 44, tert-butyl 4-(2-(5-chlorothiophene-2-carboxamido)-2-(5-(diethylamino)-1,3,4-oxadiazol-2-yl)ethyl)piperidine-1-carboxylate], 3.16 nM.
With `CCOC(=O)N1CCC(CC(NC(=O)c2ccc(Cl)s2)c2nnc(N(CC)CC)o2)CC1` (centres unmarked) [Example 45, ethyl 4-(2-(5-chlorothiophene-2-carboxamido)-2-(5-(diethylamino)-1,3,4-oxadiazol-2-yl)ethyl)piperidine-1-carboxylate] the figure was 3.16 nM.
With `Cc1ccc(C(=O)NC(CC2CCN(C(=O)OC(C)(C)C)CC2)C(C)C)s1` (centres unmarked) [Example 46, tert-butyl 4-(3-methyl-2-(5-methylthiophene-2-carboxamido)butyl)piperidine-1-carboxylate] the figure was 3.98 nM; with `CCC(CC)c1nc(C(CC2CCN(C(=O)OC(C)(C)C)CC2)NC(=O)c2ccc(Cl)s2)no1` (centres unmarked) [Example 47, tert-butyl 4-(2-(5-chlorothiophene-2-carboxamido)-2-(5-(pentan-3-yl)-1,2,4-oxadiazol-3-yl)ethyl)piperidine-1-carboxylate], 3.98 nM.
`CCN(CC)c1nnc(C(CC2CCN(C(=O)OC(C)(C)C)CC2)NC(=O)c2ccc(C)s2)o1` (centres unmarked) [Example 48, tert-butyl 4-(2-(5-(diethylamino)-1,3,4-oxadiazol-2-yl)-2-(5-methylthiophene-2-carboxamido)ethyl)piperidine-1-carboxylate]: the IC50 is 3.98 nM.
With `CCc1ccc(C(=O)NC(CC2CCN(C(=O)OC(C)(C)C)CC2)C(C)C)s1` (centres unmarked) [Example 49, tert-butyl 4-(2-(5-ethylthiophene-2-carboxamido)-3-methylbutyl)piperidine-1-carboxylate] the figure was 6.31 nM; with `CCN(c1nnc(C(CC2CCN(C(=O)OC(C)(C)C)CC2)NC(=O)c2ccc(C)s2)o1)C1CC1` (centres unmarked) [Example 50, tert-butyl 4-(2-(5-(cyclopropyl(ethyl)amino)-1,3,4-oxadiazol-2-yl)-2-(5-methylthiophene-2-carboxamido)ethyl)piperidine-1-carboxylate], 6.31 nM.
As to `Cc1ccc(C(=O)NC(CC2CCN(C(=O)Oc3ccccc3)CC2)c2ccccc2)s1` (centres unmarked) [Example 51, phenyl 4-(2-(5-methylthiophene-2-carboxamido)-2-phenylethyl)piperidine-1-carboxylate], the IC50 was 7.94 nM.
With `CCN(C)c1nnc(C(CC2CCN(C(=O)OC(C)(C)C)CC2)NC(=O)c2ccc(C)s2)o1` (centres unmarked) [Example 52, tert-butyl 4-(2-(5-(ethyl(methyl)amino)-1,3,4-oxadiazol-2-yl)-2-(5-methylthiophene-2-carboxamido)ethyl)piperidine-1-carboxylate] the figure was 10 nM.
With `CCN(CC)c1nnc(C(CC2CCN(C(=O)Oc3ccccc3)CC2)NC(=O)c2ccc(Cl)s2)o1` (centres unmarked) [Example 53, phenyl 4-(2-(5-chlorothiophene-2-carboxamido)-2-(5-(diethylamino)-1,3,4-oxadiazol-2-yl)ethyl)piperidine-1-carboxylate], the IC50 is 3.16 nM.
Consider `COc1ccc(C(CC2CCN(C(=O)OC(C)(C)C)CC2)NC(=O)c2ccc(F)cc2)cn1` (centres unmarked) [Example 54, tert-butyl 4-(2-(4-fluorobenzamido)-2-(6-methoxypyridin-3-yl)ethyl)piperidine-1-carboxylate], for which the IC50 is 12.6 nM.
For `COc1ccc(C(CC2CCN(C(=O)OC(C)C)CC2)NC(=O)c2ccc(F)cc2)cn1` (centres unmarked) [Example 55, isopropyl 4-(2-(4-fluorobenzamido)-2-(6-methoxypyridin-3-yl)ethyl)piperidine-1-carboxylate], the IC50 is 12.6 nM.
With `COc1ccc(C(CC2CCN(C(=O)OCC(C)C)CC2)NC(=O)c2ccc(F)cc2)cn1` (centres unmarked) [Example 56, isobutyl 4-(2-(4-fluorobenzamido)-2-(6-methoxypyridin-3-yl)ethyl)piperidine-1-carboxylate], the IC50 is 12.6 nM.
Regarding `CC(C)(C)OC(=O)N1CCC(CC(NC(=O)c2ccc(Br)cc2)c2ccccc2)CC1` (centres unmarked) [Example 57, tert-butyl 4-(2-(4-bromobenzamido)-2-phenylethyl)piperidine-1-carboxylate], the IC50 is 12.6 nM.
With `CC(C)(C)OC(=O)N1CCC(CC(NC(=O)c2ccc(F)s2)c2ccccc2)CC1` (centres unmarked) [Example 58, tert-butyl 4-(2-(5-fluorothiophene-2-carboxamido)-2-phenylethyl)piperidine-1-carboxylate] the figure was 12.6 nM; with `Cc1ccc(C(=O)NC(CC2CCN(C(=O)OC(C)(C)C)CC2)C2CCCC2)s1` (centres unmarked) [Example 59, tert-butyl 4-(2-cyclopentyl-2-(5-methylthiophene-2-carboxamido)ethyl)piperidine-1-carboxylate], 12.6 nM.
With `CCc1ccc(C(=O)NC(CC(C)C)CC2CCN(C(=O)OC(C)(C)C)CC2)s1` (centres unmarked) [Example 60, tert-butyl 4-(2-(5-ethylthiophene-2-carboxamido)-4-methylpentyl)piperidine-1-carboxylate] the figure was 12.6 nM; with `O=C(NC(CC1CCN(C(=O)OC2CCC2)CC1)c1ccccc1)c1ccc(Cl)cc1` (centres unmarked) [Example 61, cyclobutyl 4-(2-(4-chlorobenzamido)-2-phenylethyl)piperidine-1-carboxylate], 12.6 nM; with `C#CCOC(=O)N1CCC(CC(NC(=O)c2ccc(Cl)cc2)c2ccccc2)CC1` (centres unmarked) [Example 62, prop-2-yn-1-yl 4-(2-(4-chlorobenzamido)-2-phenylethyl)piperidine-1-carboxylate], 12.6 nM.
On to `CC(C)(C)OC(=O)N1CCC(C[C@H](NC(=O)c2ccc(Br)cc2)C2CC2)CC1` [Example 63, (S)-tert-butyl 4-(2-(4-bromobenzamido)-2-cyclopropylethyl)piperidine-1-carboxylate], for which the IC50 was 12.6 nM.
With `CC(C)(C)OC(=O)N1CCC(CC(NC(=O)c2ccc(Cl)s2)C2CCCCC2)CC1` (centres unmarked) [Example 64, tert-butyl 4-(2-(5-chlorothiophene-2-carboxamido)-2-cyclohexylethyl)piperidine-1-carboxylate] the figure was 12.6 nM.
With `CC(C)(C)OC(=O)N1CCC(C[C@H](NC(=O)c2ccc(Cl)cc2)c2ccccc2)CC1` [Example 65, (S)-tert-butyl 4-(2-(4-chlorobenzamido)-2-phenylethyl)piperidine-1-carboxylate] the figure was 12.6 nM; with `CCOC(=O)N1CCC(C[C@H](NC(=O)c2ccc(CC)s2)c2ccccc2)CC1` [Example 66, (S)-ethyl 4-(2-(5-ethylthiophene-2-carboxamido)-2-phenylethyl)piperidine-1-carboxylate], 12.6 nM.
